Here are results for 1 compound from patent US20220411422A1, “ERBB RECEPTOR INHIBITORS” (Dizal (Jiangsu) Pharmaceutical Co., Ltd., priority 2018, published 2022).

Data set [1] in a line: Blood brain barrier penetration assay in monkeys. The data set is classed as in vivo. The following applies: CSF, oral; Table 5; monkey. Here is the method: In vitro blood, plasma and brain binding assay was carried out with equilibrium dialysis device. Diluted blood (1:1 with DPBS pH7.4), EDTA-anticoagulated plasma, and brain homogenate (1:3 with DPBS pH7.4) were spiked with 5 μM test compound (in triplicate) and dialyzed against equal volume of 150 μL 100 mM PBS buffer (pH7.4) at 37° C. for appropriate equilibration time in a slowly rotated plate. At the end of incubation, a 50 μL aliquot from the receiver side and a 5 μL from the donor chamber were taken. The 5 μL sample was further diluted with 45 μL of blank blood, plasma or brain homogenate. […] After centrifuging at 4000 rpm for 20 min, supernatant was diluted with 0.1% formic acid aqueous solution and analyzed for LC/MS/MS (API 4000, Applied Biosystems, Foster City). Unbound fraction (fu) of test compound were calculated by the ratio of the buffer side response to the brain homogenate/plasma/blood side response, and unbound fraction (fu,bl, fu,pl and fu,br) of test compound in non-diluted blood and tissue were calculated from measured fu in homogenate and diluted blood with the following equation: fu,bl (fu,br)=(1/D)/[(1/fu−1)+1/D)]. […]
Total brain levels, expressed as brain/blood ratio (Kp,brain) were measured by AUC(brain)/AUC(blood or plasma) in rodents after oral administration. […]
Kp,uu brain and Kp,uu CSF was calculated by the following equation: […]

The next data set has as its target T1, pHER2 (Homo sapiens, UniProt P04626).
T1 construct: pHER2 in cells expressing HER2; endogenous in cells; host or cells: BT474c1
Briefly: pHER2 cellular activity in BT474c1 cell line. Format: cell-based. As for the experimental part:
(§1) A compound's activity of selective inhibition for HER2 wild type amplification can be evaluated with BT474 cell line (ATCC® HTB-20™). The cell line expressed phosphorylated HER2 protein and its proliferation depended on the amplified gene, which could be used for in vitro PD and anti-proliferation assays.
The compounds' inhibition of target modulation were determined as follows: BT474 cells were sorted in 96 well plates (20000 cells/well) with the DMEM medium containing 10% FBS overnight and then treated with tested compounds at a series of concentrations (3 μM, 0.3 μM, 0.1 μM, 0.03 μM, 0.01 μM, 0.003 μM, 0.001 μM, 0.0001 μM). The plates were incubated for 4 h at 37° C. with 5% CO2 and then the HER2 (Y1248) phosphorylation level of cells in each well were measured with MSD Kit (Phospho-ErbB2 (Tyr1248) Assay Whole Cell Lysate Kit: Cat #K151CLD-3). The assay is a electrochemiluminescent method (MESO SCALE DISCOVERY) for determining both phosphorylated and total HER2 of cells with an MSD SECTOR® Imager and then the ratio of p-HER2/total HER2 can be generated by the machine. The percentage of inhibition was got from formula: % inhibition=100×[1−(ratio of sample well−ratio of Min ctrl well)/(ratio of Max−Ratio of Min ctrl well)]. The IC50 values were further calculated as the compounds concentration required for 50% inhibition in best-fit curves using Prism GraphPad 7.0 or Microsoft Xlfit software.

Another data set deals with BT474 cells. Briefly: BT474 anti-proliferation assay, MTS. Format: cell-based. Particulars: Homo sapiens, BT-474, 72 h, read-out: HER2WT Amplification BT474 GI50. Here is the method: as §1
The anti-proliferation activity of compounds were determined as following procedure: The BT474 cells were sorted in 384 well plates with the DMEM medium containing 10% FBS and […] overnight and then dosed with tested compounds at a series of concentrations (30 μM, 10 μM, 3 μM, 1 μM, 0.3 μM, 0.1 μM, 0.03 μM, 0.01 μM, 0.001 μM) on next day. Meanwhile, another cells plate was prepared for measuring G0 value on next day. The dosed plates were incubate for 72 h at 37° C. with 5% CO2 and the number of viable cells in each well of G0 or dosed plates were measured by MTS (CellTiter 96® AQueous One Solution Cell Proliferation Assay, Promega) endpoint. This assay is a colorimetric method for determining the number viable cells in the proliferation assay. Detection reagents (5 μl) was dispensed into per well, and the plates were incubated for 2 hrs at room temperature. Then, absorbance at 490 nm and 650 nm (reference wavelength) in each well was measured using the safile II. (Tecan). […]

T1 sequence (P04626 23-1255): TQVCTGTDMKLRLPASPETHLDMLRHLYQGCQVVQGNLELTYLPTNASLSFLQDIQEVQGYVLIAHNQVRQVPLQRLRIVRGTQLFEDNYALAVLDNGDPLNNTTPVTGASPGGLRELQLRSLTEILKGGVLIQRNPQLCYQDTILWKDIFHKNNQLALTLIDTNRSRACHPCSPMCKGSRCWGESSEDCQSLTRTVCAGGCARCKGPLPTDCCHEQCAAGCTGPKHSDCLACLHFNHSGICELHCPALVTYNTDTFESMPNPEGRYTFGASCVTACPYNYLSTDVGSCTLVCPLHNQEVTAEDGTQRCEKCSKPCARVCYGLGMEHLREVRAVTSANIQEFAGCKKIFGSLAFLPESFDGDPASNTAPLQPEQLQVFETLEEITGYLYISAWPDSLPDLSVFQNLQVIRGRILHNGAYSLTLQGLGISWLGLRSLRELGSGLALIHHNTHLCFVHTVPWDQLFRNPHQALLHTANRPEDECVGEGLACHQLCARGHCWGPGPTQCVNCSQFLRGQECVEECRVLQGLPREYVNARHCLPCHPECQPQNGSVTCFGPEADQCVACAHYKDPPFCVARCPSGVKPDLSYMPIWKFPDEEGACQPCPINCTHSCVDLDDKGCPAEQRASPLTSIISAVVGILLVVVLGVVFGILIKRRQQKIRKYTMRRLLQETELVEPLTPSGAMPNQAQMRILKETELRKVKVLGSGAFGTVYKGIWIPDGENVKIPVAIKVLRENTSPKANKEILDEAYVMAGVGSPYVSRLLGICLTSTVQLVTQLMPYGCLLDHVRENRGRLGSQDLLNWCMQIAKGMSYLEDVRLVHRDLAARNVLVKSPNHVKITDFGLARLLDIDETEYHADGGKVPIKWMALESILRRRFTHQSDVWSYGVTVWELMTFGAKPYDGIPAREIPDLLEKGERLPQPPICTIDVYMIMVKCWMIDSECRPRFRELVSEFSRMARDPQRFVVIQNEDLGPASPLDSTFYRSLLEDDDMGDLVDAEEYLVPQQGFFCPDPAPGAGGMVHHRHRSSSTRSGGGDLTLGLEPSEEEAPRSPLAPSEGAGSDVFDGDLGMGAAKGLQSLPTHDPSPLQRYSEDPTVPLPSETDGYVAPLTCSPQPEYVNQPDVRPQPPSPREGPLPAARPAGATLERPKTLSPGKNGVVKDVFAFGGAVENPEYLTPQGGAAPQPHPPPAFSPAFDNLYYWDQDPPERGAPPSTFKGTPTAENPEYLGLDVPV

As usually defined, the IC50 is the point on the concentration scale where inhibition reaches its midpoint. Broadly, the GI50 is the concentration at which growth is held to half of that of the control. For the compound `COc1cc(O[C@H]2CCN(C)CC2(F)F)c2c(Nc3ccc(Oc4ccn5ncnc5c4)c(C)c3)ncnc2c1` (single isomer, unassigned) [Compound 6], the Kp uu in data set [1] came to 4.1. For the same compound, on pHER2, the “selectivity between pHER2 in cells expressing HER2 and pEGFR in cells expressing wild type EGFR” value is recorded as “over 300 fold”. For the same compound, the midpoint of inhibition on pHER2 (BT474c1 cell line), the IC50, lay at 4.4 nM. Besides, the GI50 in the data set on BT474 cells is approximately 20 nM.
